Structures can show the parent of a compound that is named as a salt.
Tests used:
Type in all cases: biochemical
Conditions in all cases: 100 uM ATP, 3 hr incubation, four-parameter fit
[1] = molecular target: T1, NUAK1 (Homo sapiens, UniProt O60285); assay: Phosphorylation assay ([γ-32P]-ATP, P81 paper), NUAK1
T1 construct: purchased SignalChem
T1 sequence (O60285 1-661): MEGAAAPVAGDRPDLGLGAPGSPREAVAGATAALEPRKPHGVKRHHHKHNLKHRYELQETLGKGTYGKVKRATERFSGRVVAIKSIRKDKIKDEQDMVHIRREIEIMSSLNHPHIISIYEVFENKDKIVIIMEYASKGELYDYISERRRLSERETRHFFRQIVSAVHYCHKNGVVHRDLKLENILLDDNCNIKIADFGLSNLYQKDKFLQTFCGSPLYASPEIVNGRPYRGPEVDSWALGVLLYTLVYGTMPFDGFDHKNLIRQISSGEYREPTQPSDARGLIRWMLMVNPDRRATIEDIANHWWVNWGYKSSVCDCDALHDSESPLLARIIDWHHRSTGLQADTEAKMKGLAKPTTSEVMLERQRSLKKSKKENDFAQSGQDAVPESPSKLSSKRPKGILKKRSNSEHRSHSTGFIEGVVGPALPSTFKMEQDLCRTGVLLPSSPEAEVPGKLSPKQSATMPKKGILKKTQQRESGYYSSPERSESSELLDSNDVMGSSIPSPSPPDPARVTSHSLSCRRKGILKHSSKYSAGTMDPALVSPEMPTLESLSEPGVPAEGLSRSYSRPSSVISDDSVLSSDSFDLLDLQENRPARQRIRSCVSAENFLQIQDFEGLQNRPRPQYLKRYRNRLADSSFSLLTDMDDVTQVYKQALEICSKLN
Excerpt: (§1) Kinase activity and inhibition can be measured using binding assays as well as phosphorylation assays. In the binding assays, e.g. KinaseSeeker (Luceome Biotechnologies, Tucson, Ariz.) or Kinomescan (Eurofins), the competitive displacement of a kinase active site binding probe by a compound is detected and serves as a measure of compound inhibition. In phosphorylation assays, e.g. radioactivity assays or ADP-Glo (Promega) assays, the phosphorylation of a peptide or protein substrate is used to evaluate enzyme activity, and the reduction of phosphorylation in presence of a compounds serves as a measure of compound inhibition. The inhibitor compounds described herein are screened in the following manner.
(§2) For phosphorylation assays, 30 ng of the active kinase (SignalChem) in kinase assay buffer was incubated with either inhibitor in DMSO or DMSO (no inhibitor control). Reaction was started by the addition of 10 mM magnesium sulfate, 100 uM [γ-^32P]-ATP and appropriate concentration of the relevant peptide substrate. After 3 hr incubation, the reaction was terminated by spotting 25 μl of the reaction mixture onto P81 paper strips. The paper strips were air dried, washed three times with 0.85% phosphoric acid and finally with acetone. The P81 paper was immersed in 10 mL of scintillation cocktail, and the radioactive counts were measured. For dose dependent curves, kinases were treated at varying concentrations of the compound in activity assays and IC50 values were determined using a four-parameter fit. The IC50 values against a select set of kinases is given below.

[2] = molecular target: T2, NUAK2 (Homo sapiens, UniProt Q9H093); assay: Phosphorylation assay ([γ-32P]-ATP, P81 paper), NUAK2
T2 construct: purchased SignalChem
T2 sequence (Q9H093 1-628): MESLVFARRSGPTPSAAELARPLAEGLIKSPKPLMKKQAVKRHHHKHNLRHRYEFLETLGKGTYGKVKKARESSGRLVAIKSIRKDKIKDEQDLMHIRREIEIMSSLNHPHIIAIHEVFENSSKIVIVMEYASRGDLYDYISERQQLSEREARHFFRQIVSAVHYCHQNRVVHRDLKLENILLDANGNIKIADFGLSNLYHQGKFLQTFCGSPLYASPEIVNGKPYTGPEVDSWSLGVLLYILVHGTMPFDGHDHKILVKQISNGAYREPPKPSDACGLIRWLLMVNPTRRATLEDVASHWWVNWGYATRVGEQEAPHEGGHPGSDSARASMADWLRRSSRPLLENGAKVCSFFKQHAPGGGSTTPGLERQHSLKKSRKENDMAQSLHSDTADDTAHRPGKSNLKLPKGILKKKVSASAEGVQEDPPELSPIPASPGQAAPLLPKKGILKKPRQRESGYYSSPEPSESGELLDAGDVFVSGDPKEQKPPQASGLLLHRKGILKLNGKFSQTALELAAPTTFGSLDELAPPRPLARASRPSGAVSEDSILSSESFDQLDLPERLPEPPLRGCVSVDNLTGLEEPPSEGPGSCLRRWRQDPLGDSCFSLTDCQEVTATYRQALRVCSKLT
Excerpt: as §1, §2

[3] = molecular target: T3, SIK2 (Homo sapiens, UniProt Q9H0K1); assay: Phosphorylation assay ([γ-32P]-ATP, P81 paper), SIK2
T3 construct: purchased SignalChem
Excerpt: as §1, §2

[4] = molecular target: T4, CLK1 (Homo sapiens, UniProt P49759); assay: Phosphorylation assay ([γ-32P]-ATP, P81 paper), CLK1
T4 construct: purchased SignalChem
Excerpt: as §1, §2

[5] = molecular target: T5, CLK2 (Homo sapiens, UniProt P49760); assay: Phosphorylation assay ([γ-32P]-ATP, P81 paper), CLK2
T5 construct: purchased SignalChem
Excerpt: as §1, §2

T5 sequence (P49760 whole entry): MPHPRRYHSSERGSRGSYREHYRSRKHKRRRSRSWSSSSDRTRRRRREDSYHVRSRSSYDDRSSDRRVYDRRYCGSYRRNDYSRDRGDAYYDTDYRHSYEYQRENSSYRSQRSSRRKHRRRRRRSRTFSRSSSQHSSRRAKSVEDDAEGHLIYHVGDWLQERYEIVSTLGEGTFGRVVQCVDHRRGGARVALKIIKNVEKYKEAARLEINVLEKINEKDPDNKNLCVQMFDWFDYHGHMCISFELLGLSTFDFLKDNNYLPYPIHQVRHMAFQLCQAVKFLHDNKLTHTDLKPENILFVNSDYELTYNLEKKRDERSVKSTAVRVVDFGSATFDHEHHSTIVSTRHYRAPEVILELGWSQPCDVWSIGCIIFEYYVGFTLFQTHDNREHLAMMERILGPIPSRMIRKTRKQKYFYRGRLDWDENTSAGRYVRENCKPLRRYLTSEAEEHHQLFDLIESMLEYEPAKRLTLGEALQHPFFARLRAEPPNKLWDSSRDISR
T4 sequence (P49759 whole entry): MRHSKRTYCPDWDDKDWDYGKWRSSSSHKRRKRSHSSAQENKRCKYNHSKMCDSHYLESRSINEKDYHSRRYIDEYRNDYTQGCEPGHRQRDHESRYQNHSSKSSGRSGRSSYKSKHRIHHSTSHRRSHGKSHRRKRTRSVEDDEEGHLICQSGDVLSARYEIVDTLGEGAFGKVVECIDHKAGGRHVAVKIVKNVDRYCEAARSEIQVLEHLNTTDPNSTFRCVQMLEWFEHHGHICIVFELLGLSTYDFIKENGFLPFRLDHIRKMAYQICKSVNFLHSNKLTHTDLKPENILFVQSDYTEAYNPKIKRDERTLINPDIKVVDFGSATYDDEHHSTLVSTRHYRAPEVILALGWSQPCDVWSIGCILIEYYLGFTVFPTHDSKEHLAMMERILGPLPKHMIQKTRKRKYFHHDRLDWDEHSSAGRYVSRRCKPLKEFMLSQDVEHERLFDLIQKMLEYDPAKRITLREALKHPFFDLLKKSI
T3 sequence (Q9H0K1 whole entry): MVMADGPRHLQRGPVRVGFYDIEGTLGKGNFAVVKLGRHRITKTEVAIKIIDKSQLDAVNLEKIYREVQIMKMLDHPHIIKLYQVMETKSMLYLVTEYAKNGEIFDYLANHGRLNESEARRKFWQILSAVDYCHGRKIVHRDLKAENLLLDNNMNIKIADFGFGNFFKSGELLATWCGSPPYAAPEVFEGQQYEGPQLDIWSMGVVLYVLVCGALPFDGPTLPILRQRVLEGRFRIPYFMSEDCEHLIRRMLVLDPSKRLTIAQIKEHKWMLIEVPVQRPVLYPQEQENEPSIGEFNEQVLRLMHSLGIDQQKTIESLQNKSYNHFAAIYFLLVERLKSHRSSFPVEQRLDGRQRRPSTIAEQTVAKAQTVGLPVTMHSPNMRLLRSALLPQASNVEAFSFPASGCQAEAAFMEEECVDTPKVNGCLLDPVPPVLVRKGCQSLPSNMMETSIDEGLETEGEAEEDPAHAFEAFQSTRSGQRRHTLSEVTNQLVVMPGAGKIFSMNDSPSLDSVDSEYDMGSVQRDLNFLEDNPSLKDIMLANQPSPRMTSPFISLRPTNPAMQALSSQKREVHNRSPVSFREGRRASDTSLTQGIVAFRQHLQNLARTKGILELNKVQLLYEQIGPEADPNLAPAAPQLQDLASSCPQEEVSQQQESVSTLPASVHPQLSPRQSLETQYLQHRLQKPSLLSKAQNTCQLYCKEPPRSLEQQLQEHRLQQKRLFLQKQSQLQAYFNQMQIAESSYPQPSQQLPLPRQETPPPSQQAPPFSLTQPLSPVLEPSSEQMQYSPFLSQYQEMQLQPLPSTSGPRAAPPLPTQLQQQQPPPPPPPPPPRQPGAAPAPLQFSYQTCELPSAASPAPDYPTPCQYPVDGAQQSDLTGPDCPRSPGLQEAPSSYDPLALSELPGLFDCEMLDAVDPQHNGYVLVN

Row | SMILES | IC50 [1] | IC50 [2] | IC50 [3] | IC50 [4] | IC50 [5]
1 | CN1Cc2cnc(Nc3ccn(C4CCNCC4)n3)cc2N(C)c2ccccc21 [Compound 24, 5,10-dimethyl-N-(1-(piperidin-4-yl)-1H-pyrazol-3-yl)-10,11-dihydro-5H-benzo[b]pyrido[4,3-e][1,4]diazepin-3-amine] | 1300 nM | 7000 nM | 690 nM | > 50000 nM | 9500 nM
2 | CN1C(=O)c2ccccc2N(C)c2cc(Nc3ccn(C4CCNCC4)n3)ncc21 [Compound 30, 5,11-dimethyl-3-((1-(piperidin-4-yl)-H-pyrazol-3-yl)amino)-5,11-dihydro-10H-benzo[e]pyrido[3,4-b][1,4]diazepin-10-one TFA Salt] | 130 nM | 340 nM | 1500 nM | 57800 nM | 33000 nM
3 | CN1Cc2ccccc2N(C)c2cc(Nc3ccn(C4CCNCC4)n3)ncc21 [Compound 14, 5,11-dimethyl-N-(1-(piperidin-4-yl)-1H-pyrazol-3-yl)-10,11-dihydro-5H-benzo[e]pyrido[3,4-b][1,4]diazepin-3-amine] | 1300 nM | 4600 nM | 18600 nM | 2700 nM | 1500 nM
